# Source: patent US20250120948A1, “Small Molecules G(alpha)I2 Inhibitors and Combination With Anticancer Drugs and Use Thereof” (Georgia Tech Research Corporation, priority 2023, published 2025)
# Tests used:
# [1] = Stability in human liver microsomes; format: in vitro ADME
# Procedure: (§1) On the strength of their potency, the stability of 6, 7 and 10 was determined in human and mouse plasma and liver microsomes.
# [2] = Stability in mouse liver microsomes; format: in vitro ADME
# Procedure: as §1
# PC3 cells = assay: Transwell migration assay in PC3 prostate cancer cells; format: cell-based, human; conditions: for effect on PC3 cell migration: compounds tested at 0.1 to 100 μM, compared with 14; for block of SAHA-stimulated cell migration in PC3 cells / block of docetaxel-stimulated cell migration in PC3 cells: second generation inhibitors at 20 μM, simultaneous treatment; for effect of chemotherapeutic drug on cell migration in PC3 cells: drug alone
# Procedure: (§2) In vitro transwell migration assays were conducted as described previously (Caggia et al., “Novel Role of Gialpha2 in Cell Migration: Downstream of PI3-kinase-AKT and RacI in Prostate Cancer Cells,” J Cell Physiol, 234:802-815 (2018); Caggia et al., “Small Molecule Inhibitors Targeting Galphai2 Protein Attenuate Migration of Cancer Cells,” Cancers (Basel), 12(6):1631 (2020)). Briefly, the outside of the transwell inserts (BD Biosciences, San Jose, CA) were coated with 50 μl of rat tail collagen ([…]; BD Biosciences, San Jose, CA) overnight at 4° C. The next day, 50 μl of the aforementioned rat tail collagen were added for 1 hour at room temperature into the transwell inserts, to coat the inside of the membranes. DU145, PC3 and LNCaP cells were trypsinized and suspended at the appropriate density (3×10^5 cells/insert for DU145 and PC3, and 5×10^5 cells/insert for LNCaP) in MEM or RPMI containing 0.2% BSA (Sigma-Aldrich, St. Louis, MO). Chemoattractant solution, used as positive control, was made by diluting the epidermal growth factor (EGF) (10 ng/ml) into MEM (PC3 and DU145) or RPMI (LNCaP) supplemented with 0.2% BSA. Media containing 0.2% BSA served as a control. Control and EGF solutions ([…]) were added into the wells of a 24-well plate. Aliquots of 100 μl of cell suspensions, treated with or without the different compounds at several concentrations, were loaded into the transwell inserts and the plates were incubated at 37° C. for 5 hours (DU145 and PC3) or 24 hours (LNCaP). The cells inside the transwell inserts were removed by cotton swabs, and the cleaned inserts were fixed with 350 μl of 4% paraformaldehyde (pH 7.5) for 20 minutes at room temperature. Cells that had migrated to the outside of the transwell insert membrane were stained with 3 ng/ml of DAPI solution (Thermo Fisher Scientific, Eugene, OR) and images of five non-overlapping fields were captured using Axiovert 200M, Carl Zeiss (Thornwood, NY) microscope. The number of stained nuclei were determined with automatic counting using image analysis software (ZEN 2012; Carl Zeiss). Results were expressed as migration index defined as the average number of cells per field for test substance/the average number of cells per field for the medium control.
# The effects of the newly synthesized compounds on the migratory behavior of PC3 cells were investigated in transwell migration assays as inventors have done before (Caggia et al., “Small Molecule Inhibitors Targeting Galphai2 Protein Attenuate Migration of Cancer Cells,” Cancers (Basel), 12(6):1631 (2020)). Compounds were tested at a concentration range of 0.1 to 100 μM. […] To potentially obtain insight into the disparity in their Gαi inhibition activities, molecular docking was performed on the enantiomers of 6 (6-R and 6-S) and 15 (15-R and 15-S). […] This slightly weaker binding affinity may partially explain the disproportionately weaker potency of 15 relative to 6. Other molecular factors, such as those which led to the attenuated potency observed with amino- to ether-group switch in the 7/10 pair, may contribute to the reduced potency of 15. Finally, most of these compounds have no effects on the morphology of PC3 cells or viability of several cancer cells at the concentrations as high as 100 μM.
# DU145 cells = assay: Transwell migration assay in DU145 prostate cancer cells; format: cell-based, human; conditions: drug alone
# Procedure: In vitro transwell migration assays were conducted as described previously (Caggia et al., “Novel Role of Gialpha2 in Cell Migration: Downstream of PI3-kinase-AKT and RacI in Prostate Cancer Cells,” J Cell Physiol, 234:802-815 (2018); Caggia et al., “Small Molecule Inhibitors Targeting Galphai2 Protein Attenuate Migration of Cancer Cells,” Cancers (Basel), 12(6):1631 (2020)). Briefly, the outside of the transwell inserts (BD Biosciences, San Jose, CA) were coated with 50 μl of rat tail collagen ([…]; BD Biosciences, San Jose, CA) overnight at 4° C. The next day, 50 μl of the aforementioned rat tail collagen were added for 1 hour at room temperature into the transwell inserts, to coat the inside of the membranes. DU145, PC3 and LNCaP cells were trypsinized and suspended at the appropriate density (3×10^5 cells/insert for DU145 and PC3, and 5×10^5 cells/insert for LNCaP) in MEM or RPMI containing 0.2% BSA (Sigma-Aldrich, St. Louis, MO). Chemoattractant solution, used as positive control, was made by diluting the epidermal growth factor (EGF) (10 ng/ml) into MEM (PC3 and DU145) or RPMI (LNCaP) supplemented with 0.2% BSA. Media containing 0.2% BSA served as a control. Control and EGF solutions ([…]) were added into the wells of a 24-well plate. Aliquots of 100 μl of cell suspensions, treated with or without the different compounds at several concentrations, were loaded into the transwell inserts and the plates were incubated at 37° C. for 5 hours (DU145 and PC3) or 24 hours (LNCaP). […] The number of stained nuclei were determined with automatic counting using image analysis software (ZEN 2012; Carl Zeiss). Results were expressed as migration index defined as the average number of cells per field for test substance/the average number of cells per field for the medium control.
# To determine whether the induction of cell migration by AR-antagonists and HDACi was limited to only AR-positive cells, the effects of anti-androgens and HDACi and docetaxel in AR-negative DU145 and PC3 cells were determined.
# LNCaP cells = assay: Transwell migration assay in LNCaP prostate cancer cells; format: cell-based, human; conditions: drug alone; for effect of chemotherapeutic drug on cell migration in LNCaP cells: several concentrations, 24 hours
# Procedure: as §2
# To determine the effects of HDACi on prostate cancer cell migration, migration assays were performed in androgen receptor (AR)-positive LNCaP cells using several concentrations of SAHA (0.1, 0.25, 0.5, 1, 2, 4 μM), a commercially available HDACi. […] Inventors have previously developed a very potent HDACi inhibitor (SBI-I-19), coupled with an anti-androgen, enzalutamide, which selectively targets androgen sensitive prostate cancer cells for its cytotoxic effects (Gryder et al., “Selectively Targeting Prostate Cancer with Antiandrogen Equipped Histone Deacetylase Inhibitors,” ACS Chem Biol, 8:2550-2560 (2013)). The possible effects of different concentrations of SBI-I-19 on cell migration in LNCaP cells were determined.
structure (smiles),measurement,setting,value
"CSc1ccc(OC(C)c2cc3ccccc3n2C)cc1 (stereo not drawn) [Compound 10, 1-methyl-2-(1-(4-(methylthio)phenoxy)ethyl)-1H-indole]",stability in liver microsomes,[1],only stable in the human microsome
same,stability in liver microsomes,[2],only stable in the human microsome
same,effect on PC3 cell migration,PC3 cells,less potent compared to 7
same,block of SAHA-stimulated cell migration in PC3 cells,PC3 cells,blocked the stimulatory effects of docetaxel and SAHA in PC3 cells
same,block of docetaxel-stimulated cell migration in PC3 cells,PC3 cells,blocked the stimulatory effects of docetaxel and SAHA in PC3 cells
CC1(C)C(=O)N(c2ccc(C#N)c(C(F)(F)F)c2)C(=O)N1Cc1ccc(-c2cn(CCCCC(=O)NO)nn2)cc1 [SBI-I-19],effect of chemotherapeutic drug on cell migration in DU145 cells,DU145 cells,increased cell migration
same,effect of chemotherapeutic drug on cell migration in LNCaP cells,LNCaP cells,significant dose-dependent increase in cell migration
CC(O)(CS(=O)(=O)c1ccc(F)cc1)C(=O)Nc1ccc(C#N)c(C(F)(F)F)c1 (stereo not drawn) [bicalutamide],concentration of maximum induction of cell migration in LNCaP cells,LNCaP cells,2.5 µM
"CSc1ccc(/N=C(\C)c2cc3ccccc3n2C)cc1 [Compound 4, (E)-1-(1-methyl-1H-indol-2-yl)-N-(4-(methylthio)phenyl)ethan-1-imine]",effect on PC3 cell migration,PC3 cells,"concentration dependent reduction of PC3 cell migration, but less efficiently relative to 14"
"CC(Nc1ccc(O)cc1)c1cc2ccccc2n1C (racemic) [Compound 6, 4-((1-(1-methyl-1H-indol-2-yl)ethyl)amino)phenol]",stability in liver microsomes,[1],robustly stable in both species
same,stability in liver microsomes,[2],robustly stable in both species
same,block of stimulatory effects of Docetaxel on PC3 cell migration,"PC3 cells; FIG. 13, concentration not given",block the stimulatory effects of Docetaxel on PC3 cell migration
same,effect on PC3 cell migration,PC3 cells,more effective relative to 14
same,block of SAHA-stimulated cell migration in PC3 cells,PC3 cells,blocked the stimulatory effects of docetaxel and SAHA in PC3 cells
same,block of docetaxel-stimulated cell migration in PC3 cells,PC3 cells,blocked the stimulatory effects of docetaxel and SAHA in PC3 cells
"CC(Oc1ccc(O)cc1)c1cc2ccccc2n1C (racemic) [Compound 15, 4-(1-(1-methyl-1H-indol-2-yl)ethoxy)phenol]",effect on PC3 cell migration,PC3 cells,did not inhibit the migration of PC3 cells at the maximum concentration tested
"Cn1c(CNc2ccc(O)cc2)cc2ccccc21 [Compound 5, 4-(((1-methyl-1H-indol-2-yl)methyl)amino)phenol]",effect on PC3 cell migration,PC3 cells,comparable potency
"CSc1ccc(NC(C)c2cc3ccccc3n2C)cc1 (racemic) [Compound 7, N-(1-(1-methyl-1H-indol-2-yl)ethyl)-4-(methylthio)aniline]",stability in liver microsomes,[1],only stable in the human microsome
same,stability in liver microsomes,[2],only stable in the human microsome
same,block of stimulatory effects of EGF on PC3 cell migration,PC3 cells; EGF-stimulated,blocks the stimulatory effects of EFG on PC3 cell migration
same,effect on PC3 cell migration,PC3 cells,more effective relative to 14
same,block of SAHA-stimulated cell migration in PC3 cells,PC3 cells,blocked the stimulatory effects of docetaxel and SAHA in PC3 cells
same,block of docetaxel-stimulated cell migration in PC3 cells,PC3 cells,blocked the stimulatory effects of docetaxel and SAHA in PC3 cells
"CC(Oc1ccc(S(C)(=O)=O)cc1)c1cc2ccccc2n1C (racemic) [Compound 12, 1-methyl-2-(1-(4-(methylsulfonyl)phenoxy)ethyl)-1H-indole]",effect on PC3 cell migration,PC3 cells,"less effective, eliciting reduced anti-migration activities relative to the other compounds"
"CC(=O)O[C@@]12CO[C@@H]1C[C@H](O)[C@@]1(C)C(=O)[C@H](O)C3=C(C)[C@@H](OC(=O)[C@H](O)[C@@H](NC(=O)OC(C)(C)C)c4ccccc4)C[C@@](O)([C@@H](OC(=O)c4ccccc4)[C@H]21)C3(C)C [docetaxel, reference compound]",effect of chemotherapeutic drug on cell migration in PC3 cells,PC3 cells,induced increase in cell migration
O=C(CCCCCCC(=O)Nc1ccccc1)NO [SAHA],effect of chemotherapeutic drug on cell migration in DU145 cells,DU145 cells,increased cell migration
same,effect of chemotherapeutic drug on cell migration in PC3 cells,PC3 cells,induced increase in cell migration
same,effect of chemotherapeutic drug on cell migration in LNCaP cells,LNCaP cells,significant dose-dependent increase in cell migration
"CC(Oc1ccc([S+](C)[O-])cc1)c1cc2ccccc2n1C (stereo not drawn) [Compound 13, 1-methyl-2-(1-(4-(methylsulfinyl)phenoxy)ethyl)-1H-indole]",effect on PC3 cell migration,PC3 cells,"less effective, eliciting reduced anti-migration activities relative to the other compounds"
"Cn1c(/C=N/c2ccc(O)cc2)cc2ccccc21 [Compound 3, (E)-4-(((1-methyl-1H-indol-2-yl)methylene)amino)phenol]",effect on PC3 cell migration,PC3 cells,"concentration dependent reduction of PC3 cell migration, but less efficiently relative to 14"
CNC(=O)c1ccc(N2C(=S)N(c3ccc(C#N)c(C(F)(F)F)c3)C(=O)C2(C)C)cc1F [enzalutamide],effect of chemotherapeutic drug on cell migration in DU145 cells,DU145 cells,increased cell migration
same,concentration of maximum induction of cell migration in LNCaP cells,LNCaP cells,2.5 µM
same,effect of chemotherapeutic drug on cell migration in LNCaP cells,LNCaP cells,dose-dependent increase in cell migration
